The source of these data is patent US20230220047A1, “PEPTIDES FOR TREATMENT OF SEPSIS AND CANCER” (NORWEGIAN UNIVERSITY OF SCIENCE AND TECHNOLOGY (NTNU), priority 2020, published 2023).

In assay [1] the test system is TLR4. The assay is described as follows: ELISA/Bioplex of LPS-mediated cytokine secretion by THP-1 cells. Format: cell-based, human. The following applies: for LPS-mediated secretion of IL-18, IL-6, IL-8 and TNF (27-plex Bioplex): 10 μM. As for the experimental part: (A) Results of LDH assay and ELISAs analysing cytokine secretion after 5 h of stimulation with LPS (graphs show mean values for at least 3 biological replicates). […] In the tables average values are presented based on 3-5 biological replicates for each experiment. […]
TNF in supernatants was detected using a human TNF-alpha DuoSet ELISA (DY210) (R&D Systems); CXCL10 using a DuoSet ELISA (DY266) (R&D Systems); IL-1β using a BD OptEiA human IL-1β ELISA SetII (#557953, BD Biosciences): IFNβ using a VeriKine-HS™ Human Interferon-Beta Serum ELISA Kit (#41415) from PBL Assay Science. Some supernatants were also analysed by multiplex cytokine assay (Bio-Plex; Bio-Rad Laboratories Inc.) for IL-1β, IL-6, IL-8, CXCL10/IP-10. Results are presented as mean and SD for biological replicates for a representative donor (primary human macrophages), or at least three independent experiments for the model cell line THP-1. Statistical significance was evaluated in GraphPad Prizm 5.03. Data distribution was assumed to be normal but this was not formally tested. The difference between the two groups was determined by two-tailed t test.
A general note: In an ELISA, binding on a coated surface is turned into a signal by an enzyme label.

Assay [2] concerns primary Vk*MYC multiple myeloma cells. The assay is described as follows: Primary Vk*MYC multiple myeloma cells. Format: cell-based, mouse. As to conditions: 7.5 or 15 μM, 48 h. As for the experimental part: Isolated primary cells were seeded then incubated for 48 hours in growth medium supplemented with water, penetratin, P7-Pen, P7-A4-Pen or P7-N4-Pen, then counted. Peptides were included at concentrations of 7.5 or 15 μM. […] Results are based on 3 biological replicates, error bars show standard deviation of mean.
Multiple myeloma cells JJN-3 (DSMZ (Germany) no. ACC 541), ANBL-6 (Cellosaurus accession number CVCL_5425, obtained from Dr Diane Jelinek, Mayo Clinic, Rochester, Minn.), INA-6 (Cellosaurus accession number CVCL_5209, obtained from Dr M. Gramatzki, University of Erlangen-Nurnberg, Erlangen, Germany), RPMI-8226 (ATCC CCL-155), and IH-1 (Cellosaurus accession number CVCL_WZ44, established from the pleural effusion of a myeloma patient by Myeloma research group, IKOM, NTNU, Trondheim, Norway) were grown in RPMI-1640 (Sigma-Aldrich Norway, Oslo, Norway) supplemented with 100 nM penicillin/streptomycin and 10% FCS, and for ANBL-6, IH-1 and INA-6 cells 2 ng/ml recombinant IL-6 (Gibco, Thermo Fisher Scientific, Waltham, Mass., USA). Murine multiple myeloma Vk*MYC cells were obtained from M.D. Leif Bergsagel (Mayo Clinic, Richester, Minn., USA) and cultured in RPMI-1640 supplemented with 2% human serum (B^+, The blood bank, St Olav's Hospital, Trondheim, Norway), 100 nM penicillin/streptomycin, L-Glutamine (2 mM) and recombinant IL-6 (1 ng/ml). HEK293T (ATCC CRL-3216) were cultured in DMEM with 10% FCS. THP-1 TRAM knockout (KO) and TLR4 KO cell lines, and matching lentivirally transduced control cell lines, were differentiated in the same way as wild type (WT) THP-1. TRAM KO THP-1 cell line is described in Yurchenko et al. (supra).
Primary multiple myeloma cells were isolated from Vk*Myc mice and provided by the Multiple Myeloma Research Group, IKOM, NTNU. The peptides P7-Pen, P7-N4-Pen and P7-A4-Pen were applied to the cultured primary cells and effect of the peptides on cell growth analysed as previously.

For assay [3], the system named is TLR4. The assay can be described thus: qPCR of LPS-mediated cytokine mRNA expression in THP-1 macrophages. As to conditions: for IFNβ and CXCL10 mRNA expression: 30 min pre-treatment, LPS. Format: cell-based, human. As for the experimental part: SW480 (ATCC CCL-228) and Jurkat (ATCC Clone E6-1; TIB-152) cells were cultured in RPMI 1640 (Sigma-Aldrich, Schnelldorf, Germany) supplemented with 10% heat-inactivated FCS, penicillin/streptomycin (Life Technologies) and 20 mM L-Glutamine. THP-1 cells (ATCC TIB-202) were cultured in RPMI-1640 (high-glucose, ATCC) supplemented with 10% heat inactivated foetal calf serum (FCS), 100 nM penicillin/streptomycin and 5 μM β-mercaptoethanol (Sigma). THP-1 cells were differentiated with 60 ng/ml phorbol 12-myristate 13-acetate (PMA, Sigma) for 72 h, followed by 24 or 48 h in medium without PMA.
Total RNA was isolated from the cells using Qiazol reagent #79306 from QIAGEN, and chloroform extraction followed by purification on RNeasy Mini columns with DNAse digestion (Qiagen). cDNA was prepared using the Maxima First Strand cDNA Synthesis Kit for quantitative real-time polymerase chain reaction (RT-qPCR) (Thermo Fisher Scientific) according to the manufacturer's protocol. qPCR was performed using the PerfeCTa qPCR FastMix (Quanta Biosciences) in replicates and cycled in a StepOnePlus™ Real-Time PCR cycler. The following TaqMan® Gene Expression Assays (Applied Biosystems®) were used: IFNβ (Hs01077958_s1), TNF (Hs00174128_m1), TBP (Hs00427620_m1), CXCL10 (Hs01124251_g1), IL-6 (Hs00174131_m1) and IL-1β (Hs01555410_m1), for human cells; Ifnβ (Mm00439552_s1), Tnf (Mm00443258_m1), Tbp (Mm01277042_m1) and II-1β (Mm00434228_m1), for mouse cells. No RT controls were negative. The level of TBP mRNA was used for normalisation and results presented as relative expression compared to the control untreated sample. Relative expression was calculated using Pfaffl's mathematical model (Pfaffl, Nucleic Acids Research 29(9): e45, 2001). Results are presented as the mean and SD expression fold change for biological replicates relative to non-stimulated cells. Statistical significance was evaluated in GraphPad Prizm 5.03. Data distribution was assumed to be normal but this was not formally tested. The difference between the two groups was determined by two-tailed t test.
Background: Real-time PCR tracks product formation cycle by cycle.

In the next assay the test system is E. coli particles. The assay is described as follows: Whole blood assay, E. coli particle stimulation. The assay is classed as cell-based, human.

Take “Ac-ITVAASVTLTGRQIKIWFQNRRMKWKK-NH2 [Peptide P7-A4-Pen]”: in the assay with TLR4 [1] (15 μM, 30 min pre-treatment, LPS 100 ng/ml 5 h, relative to P7-Pen), the “inhibitory activity towards LPS-induced CXCL10, TNF and IL-1β secretion (ELISA)” value is listed as “least effect on peptide activity”. Further, the “effect on primary multiple myeloma cells” value in assay [2] is reported as “strong cytotoxic effect”.

For the substance “Ac-ITVYASVTLTGRQIKIWFQNRRMKWKK-NH2 [Peptide P7-Pen]”, the “IFNβ and CXCL10 mRNA expression” value with TLR4 [3] (10 μM) was “reduced”. In addition, the “inhibition of CXCL10 secretion” value in the assay on TLR4 [1] (10 μM applied 30 min before or simultaneously with LPS, LPS 6 h) is listed as “very effective”. In addition, in the assay with TLR4 [1] (10 μM applied 1 h after addition of LPS), the “inhibitory effect on CXCL10 secretion” value is on record as “reduced”. In the assay on TLR4 [1] (30 min pre-treatment), the “LPS-mediated secretion of IL-18, IL-6, IL-8 and TNF (27-plex Bioplex)” value is recorded as “inhibitory effect”. For the same substance, in the assay on E. coli particles (20 μM, 4 h), the “E. coli-mediated IFNβ secretion” value is recorded as “significantly inhibiting”, the “E. coli-mediated IL-1β secretion” value was “no significant effect” and the “E. coli-mediated TNF production” value is “Significant inhibition”. Further, the “E. coli-mediated IL-6” value with E. coli particles (20 μM, 4 h, not statistically significant) is on record as “a degree of inhibition”. Also, the “effect on primary multiple myeloma cells” value in assay [2] is “strong cytotoxic effect”.

On to “Ac-ITVYASVTLTGRRRRRRRRRRR-NH2 [Peptide P7-Arg11]”, for which the “IFNβ and CXCL10 mRNA expression” value in the assay with TLR4 [3] (10 μM) was “reduced”. Moreover, in the assay on TLR4 [3] (10 μM, 1 h pre-treatment, LPS 100 ng/ml), the “LPS-mediated IFNβ, CXCL10 and TNF expression” value is recorded as “clear inhibitory effect”. Also, in the assay on TLR4 [3] (20 μM, 1 h pre-treatment, LPS 100 ng/ml), the “expression of IFNβ, CXCL10 and TNF mRNA” value is recorded as “totally inhibited”. Further, in the assay on TLR4 [3] (peptide removed from media after pre-treatment, before LPS stimulation (data not shown)), the “LPS-induced cytokine expression levels (IFNβ, TNF and CXCL10 mRNA)” value is reported as “No changes”. The “LPS-mediated secretion of IL-18, IL-6, IL-8 and TNF (27-plex Bioplex)” value in the assay with TLR4 [1] (30 min pre-treatment) is “inhibitory effect”. The “LPS-mediated TNF secretion (ELISA)” value with TLR4 [1] (not shown) is on record as “prevented TNF secretion”. Besides, the “E. coli-mediated IFNβ secretion by whole blood cells” value in the assay with E. coli particles (pilot assay, 10 μM, E. coli particles) was “inhibited”.
